Results: US20140024620A1, “Methods for Inhibiting Cell Proliferation in EGFR-Driven Cancers” (ARIAD PHARMACEUTICALS, INC., priority 2010, published 2014)

Tested on: Ba/F3 cells expressing EGFR-Del/T790M
Assay: tumor model using Ba/F3 cells expressing EGFR-Del/T790M
Format: in vivo, mice
Text: NSCLC cell lines as well as engineered Ba/F3 and NIH3T3 cell lines were used to examine the activity of compounds of formula (I) against 3 general forms of EGFR: native EGFR (the naturally occurring form), EGFR with an activating mutation (delE746_A750 [Del] or L858R; this form is sensitive to first generation EGFR inhibitors), and EGFR with both an activating mutation and a T790M resistance mutation (L858R/T790M or Del/T790M; the addition of the T790M mutation makes this form resistant to first generation EGFR inhibitors). Effects of test compounds on EGFR signaling were assessed by measuring levels of phosphorylated EGFR, effects on in vitro proliferation measured by a growth or viability assay, and effects on in vivo tumor growth measured in mice following daily oral dosing.

Compound: COc1cc(N2CCC(N3CCN(C)CC3)CC2)ccc1Nc1ncc(Cl)c(Nc2ccccc2P(C)(C)=O)n1 [AP26113]
- inhibition at 50 mg/kg (Mus musculus, BaF3, 24 h, read-out: inhibition of levels of phosphorylated EGFR in the tumor): > 80%
- tumor growth inhibition (daily oral dosing with 50 mg/kg): > 90%
